Biological target: T1, Folate receptor (Homo sapiens, UniProt P15328)
T1 construct: host or cells: KB cells (human cervical carcinoma cell line, HeLa subclone)
Test: Folate receptor binding affinity (displacement of ^3H-folic acid on KB tumor cells)
Details: ^3H-folic acid 0.84 nM, 4° C., 30 min, read-out: FR-binding affinity IC50
Method: Cell Culture: KB cells (human cervical carcinoma cell line, HeLa subclone; ACC-136) were purchased from the German Collection of Microorganisms and Cell Cultures (DSMZ, Braunschweig, Germany). The cells were cultured as monolayers at 37° C. in a humidified atmosphere containing 5% CO2. […] FFRPMI medium was supplemented with 10% heat-inactivated fetal calf serum (FCS, as the only source of folate), L-glutamine and antibiotics (penicillin/streptomycin/fungizone). Routine culture treatment was performed twice a week with EDTA (2.5 mmol/l) in PBS.
After incubation, Eppendorf tubes containing the cell suspensions were centrifuged at 4° C. for 5 min and the supernatant was removed. By addition of 0.5 ml of NaOH 1 M the cell pellets were lysed and transferred into scintillation tubes containing 5 ml of scintillation cocktail (Ultima Gold; Perkin Elmer). Radioactivity was measured using a liquid scintillation analyzer (Tri-Carb 1900 TR, Packard) and an inhibitory concentration of 50% was determined from displacement curves using GraphPad Prism (version 5.01) software.

T1 sequence (P15328 25-234): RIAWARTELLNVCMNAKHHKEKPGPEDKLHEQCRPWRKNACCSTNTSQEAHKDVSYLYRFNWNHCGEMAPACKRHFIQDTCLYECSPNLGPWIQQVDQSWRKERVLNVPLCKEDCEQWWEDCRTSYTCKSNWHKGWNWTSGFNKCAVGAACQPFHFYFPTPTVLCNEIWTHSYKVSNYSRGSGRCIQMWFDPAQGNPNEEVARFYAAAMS

IC50: 810 ± 180 pM
SMILES: Nc1nc2ncc(CNc3ccc(C(=O)N[C@@H](CCC(=O)O)C(=O)O)c(F)n3)nc2c(=O)[nH]1 [3′-aza-2′-fluorofolic acid]

From patent publication US10357576B2, “18F-labelled folate/antifolate analogues” (MERCK & CIE, priority 2012, dated 2019)
